Our source for the relative viability values is the supplement of paper PMC10307832.

Compound in the test “Etoposide + Foretinib”: COc1cc([C@@H]2c3cc4c(cc3[C@@H](O[C@@H]3O[C@@H]5CO[C@@H](C)O[C@H]5[C@H](O)[C@H]3O)[C@H]3COC(=O)[C@H]23)OCO4)cc(OC)c1O [Etoposide] + COc1cc2c(Oc3ccc(NC(=O)C4(C(=O)Nc5ccc(F)cc5)CC4)cc3F)ccnc2cc1OCCCN1CCOCC1 [Foretinib] (partner 0.25 µM)
Put plainly: relative viability (nuclei count vs DMSO), 5 days (fraction); higher = more cells survive. The procedure, abridged:
(§1)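 After 5 days of treatment, lung cancer cells in 1536-well plates were fixed and stained in a single step (final 0.05% Triton X-100, 1% formaldehyde, 1 ug/ml Hoechst) and their nuclei counted on 4× images. Treatment had been applied by pin tool the day after seeding as one drug alone or as a fixed anchor-drug dose with five library-drug doses (not always all listed) in √10 steps. Relative viability is the nuclei count of treated wells divided by that of vehicle wells, and values are medians of duplicate plates.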

Compound in the test “Bleomycin + Navitoclax”: CC1=C(N=C(N=C1N)[C@H](CC(=O)N)NC[C@@H](C(=O)N)N)C(=O)N[C@@H]([C@H](C2=CN=CN2)OC3C(C(C(C(O3)CO)O)O)OC4C(C(C(C(O4)CO)O)OC(=O)N)O)C(=O)N[C@H](C)[C@H]([C@H](C)C(=O)N[C@@H]([C@@H](C)O)C(=O)NCCC5=NC(=CS5)C6=NC(=CS6)C(=O)NCCC[S+](C)C)O [Bleomycin] + CC1(C)CCC(c2ccc(Cl)cc2)=C(CN2CCN(c3ccc(C(=O)NS(=O)(=O)c4ccc(N[C@H](CCN5CCOCC5)CSc5ccccc5)c(S(=O)(=O)C(F)(F)F)c4)cc3)CC2)C1 [Navitoclax] (partner 0.5 µM)
The test is described as above. Conditions: main component drawn. The method in brief:
as §1

With LCLC-97TM1, the relative viability was 0.87 with Etoposide + Foretinib (first compound 0.01 µM); 0.988 in the test with Etoposide + Foretinib (first compound 0.03162 µM); 0.732 in the test with Etoposide + Foretinib (first compound 0.1 µM); 0.341 with Etoposide + Foretinib (first compound 0.3162 µM); 0.173 with Etoposide + Foretinib (first compound 1 µM); 0.191 with Bleomycin + Navitoclax (first compound 0.01 µM). Besides, the relative viability with Bleomycin + Navitoclax (first compound 0.03162 µM) came to 0.197; in the test with Bleomycin + Navitoclax (first compound 0.1 µM), 0.102; in the test with Bleomycin + Navitoclax (first compound 0.3162 µM) it was 0.152; with Bleomycin + Navitoclax (first compound 1 µM) it was 0.1.
For the cell line EPLC-272H, the relative viability with Etoposide + Foretinib (first compound 0.01 µM) is 0.626; in the test with Etoposide + Foretinib (first compound 0.03162 µM), 0.722; with Etoposide + Foretinib (first compound 0.1 µM), 0.552; with Etoposide + Foretinib (first compound 0.3162 µM), 0.61; with Etoposide + Foretinib (first compound 1 µM), 0.255; with Bleomycin + Navitoclax (first compound 0.01 µM), 0.793. The relative viability amounted to 0.888 in the test with Bleomycin + Navitoclax (first compound 0.03162 µM), 0.826 with Bleomycin + Navitoclax (first compound 0.1 µM), 1.29 with Bleomycin + Navitoclax (first compound 0.3162 µM) and 0.159 in the test with Bleomycin + Navitoclax (first compound 1 µM).
Consider NCI-H1915, for which the relative viability turned out to be 1.06 with Etoposide + Foretinib (first compound 0.01 µM); 1.18 with Etoposide + Foretinib (first compound 0.03162 µM); 1.16 with Etoposide + Foretinib (first compound 0.1 µM); 0.986 with Etoposide + Foretinib (first compound 0.3162 µM); 0.877 with Etoposide + Foretinib (first compound 1 µM); 0.726 with Bleomycin + Navitoclax (first compound 0.01 µM). Besides, the relative viability in the test with Bleomycin + Navitoclax (first compound 0.03162 µM) is 0.78; with Bleomycin + Navitoclax (first compound 0.1 µM), 0.732; with Bleomycin + Navitoclax (first compound 0.3162 µM) it was 0.537; with Bleomycin + Navitoclax (first compound 1 µM), 0.212.
For the cell line NCI-H3122, the relative viability is 0.972 with Etoposide + Foretinib (first compound 0.01 µM); 0.975 with Etoposide + Foretinib (first compound 0.03162 µM); 0.962 in the test with Etoposide + Foretinib (first compound 0.1 µM); 0.682 with Etoposide + Foretinib (first compound 0.3162 µM); 0.449 with Etoposide + Foretinib (first compound 1 µM); 1.08 in the test with Bleomycin + Navitoclax (first compound 0.01 µM). Also, the relative viability was determined as 1.03 in the test with Bleomycin + Navitoclax (first compound 0.03162 µM), 0.96 with Bleomycin + Navitoclax (first compound 0.1 µM), 0.79 with Bleomycin + Navitoclax (first compound 0.3162 µM) and 0.547 with Bleomycin + Navitoclax (first compound 1 µM).
Turning to NCI-H441, the relative viability in the test with Etoposide + Foretinib (first compound 0.01 µM) is 0.923; in the test with Etoposide + Foretinib (first compound 0.03162 µM), 0.838; with Etoposide + Foretinib (first compound 0.1 µM), 0.673; with Etoposide + Foretinib (first compound 0.3162 µM), 0.363; with Etoposide + Foretinib (first compound 1 µM), 0.286; in the test with Bleomycin + Navitoclax (first compound 0.03162 µM) it was 0.733. In addition, the relative viability was 0.574 with Bleomycin + Navitoclax (first compound 0.1 µM), 0.389 in the test with Bleomycin + Navitoclax (first compound 0.3162 µM) and 0.339 with Bleomycin + Navitoclax (first compound 1 µM).
Turning to NCI-H2170, the relative viability with Etoposide + Foretinib (first compound 0.01 µM) stood at 0.988; with Etoposide + Foretinib (first compound 0.03162 µM), 1.02; with Etoposide + Foretinib (first compound 0.1 µM), 0.917; in the test with Etoposide + Foretinib (first compound 0.3162 µM) it was 0.906; in the test with Etoposide + Foretinib (first compound 1 µM), 0.765; with Bleomycin + Navitoclax (first compound 0.01 µM), 0.503. The relative viability in the test with Bleomycin + Navitoclax (first compound 0.03162 µM) was 0.555; with Bleomycin + Navitoclax (first compound 0.1 µM), 0.578; with Bleomycin + Navitoclax (first compound 0.3162 µM), 0.414; in the test with Bleomycin + Navitoclax (first compound 1 µM), 0.377.
For the cell line NCI-H1395, the relative viability was determined as 1 in the test with Etoposide + Foretinib (first compound 0.01 µM); 0.978 with Etoposide + Foretinib (first compound 0.03162 µM); 0.868 with Etoposide + Foretinib (first compound 0.1 µM); 0.885 in the test with Etoposide + Foretinib (first compound 0.3162 µM); 0.606 with Etoposide + Foretinib (first compound 1 µM); 0.829 in the test with Bleomycin + Navitoclax (first compound 0.01 µM). Moreover, the relative viability in the test with Bleomycin + Navitoclax (first compound 0.03162 µM) is 0.944; with Bleomycin + Navitoclax (first compound 0.1 µM), 0.709; with Bleomycin + Navitoclax (first compound 0.3162 µM), 0.535; in the test with Bleomycin + Navitoclax (first compound 1 µM), 0.496.
In the case of IA-LM, the relative viability with Etoposide + Foretinib (first compound 0.01 µM) is 1.06; with Etoposide + Foretinib (first compound 0.03162 µM), 1.09; with Etoposide + Foretinib (first compound 0.1 µM) it was 0.865; with Etoposide + Foretinib (first compound 0.3162 µM) it was 0.975; with Etoposide + Foretinib (first compound 1 µM), 0.494; with Bleomycin + Navitoclax (first compound 0.01 µM), 0.498. Further, the relative viability worked out at 0.673 with Bleomycin + Navitoclax (first compound 0.03162 µM), 0.611 with Bleomycin + Navitoclax (first compound 0.1 µM), 0.28 in the test with Bleomycin + Navitoclax (first compound 0.3162 µM) and 0.205 with Bleomycin + Navitoclax (first compound 1 µM).
As for PC-14, the relative viability in the test with Etoposide + Foretinib (first compound 0.01 µM) was 0.953; with Etoposide + Foretinib (first compound 0.03162 µM) it was 0.922; with Etoposide + Foretinib (first compound 0.1 µM), 0.995; in the test with Etoposide + Foretinib (first compound 0.3162 µM) it was 0.934; in the test with Etoposide + Foretinib (first compound 1 µM), 0.832; in the test with Bleomycin + Navitoclax (first compound 0.01 µM), 0.663. Also, the relative viability in the test with Bleomycin + Navitoclax (first compound 0.03162 µM) was found to be 0.532; in the test with Bleomycin + Navitoclax (first compound 0.1 µM), 0.174; with Bleomycin + Navitoclax (first compound 0.3162 µM), 0.0752; with Bleomycin + Navitoclax (first compound 1 µM), 0.0592.
For the cell line CAL-12T, the relative viability in the test with Etoposide + Foretinib (first compound 0.01 µM) stood at 1.19; in the test with Etoposide + Foretinib (first compound 0.03162 µM) it was 1.16; with Etoposide + Foretinib (first compound 0.1 µM), 1.13; with Etoposide + Foretinib (first compound 0.3162 µM) it was 0.765; with Etoposide + Foretinib (first compound 1 µM), 0.401; with Bleomycin + Navitoclax (first compound 0.01 µM) it was 0.964. Besides, the relative viability with Bleomycin + Navitoclax (first compound 0.03162 µM) worked out at 0.785; with Bleomycin + Navitoclax (first compound 0.1 µM), 0.551; with Bleomycin + Navitoclax (first compound 0.3162 µM), 0.228; in the test with Bleomycin + Navitoclax (first compound 1 µM), 0.201.
For the cell line EBC-1, the relative viability in the test with Etoposide + Foretinib (first compound 0.01 µM) came out at 0.119; in the test with Etoposide + Foretinib (first compound 0.03162 µM), 0.107; with Etoposide + Foretinib (first compound 0.1 µM) it was 0.12; with Etoposide + Foretinib (first compound 0.3162 µM) it was 0.102; in the test with Etoposide + Foretinib (first compound 1 µM), 0.107; in the test with Bleomycin + Navitoclax (first compound 0.01 µM), 0.392. In addition, the relative viability with Bleomycin + Navitoclax (first compound 0.03162 µM) worked out at 0.527; in the test with Bleomycin + Navitoclax (first compound 0.1 µM), 0.379; with Bleomycin + Navitoclax (first compound 0.3162 µM), 0.274; with Bleomycin + Navitoclax (first compound 1 µM), 0.269.
